Measured values as given in ChEMBL document CHEMBL1137177, “Synthesis of 2',5'-oligoadenylate analogs containing an adenine acyclonucleoside and their ability to activate human RNase L” (Bioorg Med Chem Lett, 2004).

experiment: Effective concentration for activation of RNase L

EC50 [nM] | SMILES
1 | Nc1ncnc2c1ncn2[C@@H]1O[C@H](COP(=O)(O)O[C@@H]2[C@H](O)[C@@H](COP(=O)(O)O[C@@H]3[C@H](O)[C@@H](COP(=O)(O)O[C@@H]4[C@H](O)[C@@H](COP(=O)(O)O)O[C@H]4n4cnc5c(N)ncnc54)O[C@H]3n3cnc4c(N)ncnc43)O[C@H]2n2cnc3c(N)ncnc32)[C@@H](O)[C@H]1O
1.7 | Nc1ncnc2c1ncn2C[C@H](OP(=O)(O)OC[C@H]1O[C@@H](n2cnc3c(N)ncnc32)[C@H](O)[C@@H]1O)[C@H](O)COP(=O)(O)O[C@@H]1[C@H](O)[C@@H](CO[PH](=O)O[C@@H]2[C@H](O)[C@@H](COP(=O)(O)O)O[C@H]2n2cnc3c(N)ncnc32)O[C@H]1n1cnc2c(N)ncnc21 (stereo partly drawn)
9 | Nc1ncnc2c1ncn2C[C@H](OP(=O)(O)OC[C@H]1O[C@@H](n2cnc3c(N)ncnc32)[C@H](OP(=O)(O)OC[C@H]2O[C@@H](n3cnc4c(N)ncnc43)[C@H](O)[C@@H]2O)[C@@H]1O)[C@H](O)CO[PH](=O)O[C@@H]1[C@H](O)[C@@H](COP(=O)(O)O)O[C@H]1n1cnc2c(N)ncnc21 (stereo partly drawn)
